Measurements: patent publication US20130172320A1, “PYRIDO [4,3-B] INDOLE AND PYRIDO [3,4-B] INDOLE DERIVATIVES AND METHODS OF USE” (priority 2010, published 2013)

Experiments:
[1] = biological target: human recombinant histamine H1 receptor (Homo sapiens, UniProt P35367); test: Histamine H1 radioligand binding ([3H]Pyrilamine); conditions: compound at 0.1 μM; 1.2 nM [3H]Pyrilamine; read-out: Binding data (Percentage inhibition) Histamine H1 (0.1 μM)
Procedure: To evaluate in radioligand binding assays the activity of compounds of the invention, human recombinant histamine H1 receptor expressed in Chinese hamster ovary (CHO) cells (De Backer, M. et al, Biochem. Biophys. Res. Comm. 197(3):1601, 1993) in a modified Tris-HCl buffer (50 mM Tris-HCl, pH 7.4, 2 mM MgCl2, 100 mM NaCl, 250 mM Sucrose) was used. Compounds of the invention were incubated with 1.2 nM [^3H]Pyrilamine for 180 min at 25° C. Non-specific binding was estimated in the presence of 1 μM Pyrilamine. Receptor proteins were filtered and washed, the filters were then counted to determine [^3H]Pyrilamine specifically bound. Compounds were screened at 1 μM or lower, using 1% DMSO as vehicle. Biochemical assay results are presented as the percent inhibition of specific binding in Table 2.

[2] = biological target: T1, human recombinant adrenergic α2B receptor (Homo sapiens, UniProt P18089); test: Adrenergic α2B radioligand binding ([3H]Rauwolscine); conditions: compound at 0.1 μM; read-out: Percentage inhibition of ligand binding, Adrenergic (0.1 μM) a2B
T1 construct: expressed in transfected cells; host or cells: Chinese hamster ovary (CHO) K1 cells
T1 sequence (P18089 1-450): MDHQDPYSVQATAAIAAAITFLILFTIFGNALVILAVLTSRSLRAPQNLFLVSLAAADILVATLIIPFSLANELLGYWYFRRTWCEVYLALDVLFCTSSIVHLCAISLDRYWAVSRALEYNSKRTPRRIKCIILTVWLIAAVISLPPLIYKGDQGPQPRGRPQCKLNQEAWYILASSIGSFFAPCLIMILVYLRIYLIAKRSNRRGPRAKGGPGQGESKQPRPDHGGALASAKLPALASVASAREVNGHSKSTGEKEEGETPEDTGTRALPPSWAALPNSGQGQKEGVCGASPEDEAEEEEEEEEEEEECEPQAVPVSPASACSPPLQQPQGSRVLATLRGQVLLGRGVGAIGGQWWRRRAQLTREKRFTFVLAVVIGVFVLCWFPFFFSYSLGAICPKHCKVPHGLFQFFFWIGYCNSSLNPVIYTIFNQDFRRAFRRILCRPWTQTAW
Procedure: To evaluate in radioligand binding assays the activity of compounds of the invention, human recombinant adrenergic α2B receptor expressed in Chinese hamster ovary (CHO) K1 cells (Uhlen, S. et al, Eur. J. Pharmacol. 343(1):93, 1998) in a modified Tris-HCl buffer (50 mM Tris-HCl, pH 7.4, 12.5 mM MgCl2, 1 mM EDTA, 0.2% BSA) was used. Compounds of the invention were incubated with 2.5 nM [^3H]Rauwolscine for 60 min at 25° C. Non-specific binding was estimated in the presence of 10 μM Prozosin. Receptor proteins were filtered and washed, the filters were then counted to determine [^3H]Rauwolscine specifically bound. Compounds were screened at 1 μM or lower, using 1% DMSO as vehicle. Biochemical assay results are presented as the percent inhibition of specific binding in Table 3.

[3] = biological target: T2, human recombinant serotonin (5-Hydroxytryptamine) 5-HT6 receptor (Homo sapiens, UniProt P50406); test: Serotonin 5-HT6 radioligand binding ([3H]LSD); conditions: compound at 0.1 μM; read-out: Percentage inhibition of ligand binding, Serotonin (0.1 μM) 5-HT6
T2 construct: expressed in transfected cells; host or cells: human HeLa cells
Procedure: To evaluate in radioligand binding assays the activity of compounds of the invention, human recombinant serotonin (5-Hydroxytryptamine) 5-HT6 receptor expressed in human HeLa cells (Monsma, F. Jr. et al, Mol. Pharmacol. 43:320, 1993) in a modified Tris-HCl buffer (50 mM Tris-HCl, pH 7.4, 150 mM NaCl, 2 mM Ascorbic Acid, 0.001% BSA) was used. Compounds of the invention were incubated with 1.5 nM [3H]Lysergic acid diethylamide (LSD) for 120 min at 37° C. Non-specific binding was estimated in the presence of 5 μM Serotonin (5-HT). Receptor proteins were filtered and washed, the filters were then counted to determine [3H]LSD specifically bound. Compounds were screened at 1 μM or lower, using 1% DMSO as vehicle. Biochemical assay results are presented as the percent inhibition of specific binding in Table 4.

[4] = biological target: T3, human recombinant serotonin (5-Hydroxytryptamine) 5-HT5A receptor (Homo sapiens, UniProt P47898); test: Serotonin 5-HT5A radioligand binding ([3H]LSD); conditions: compound at 0.1 μM; read-out: Percentage inhibition of ligand binding, Serotonin (0.1 μM) 5-HT5A
T3 construct: expressed in transfected cells; host or cells: Chinese hamster ovary (CHO) K1 cells
Procedure: To evaluate in radioligand binding assays the activity of compounds of the invention, human recombinant serotonin (5-Hydroxytryptamine) 5-HT5A receptor expressed in Chinese hamster ovary (CHO) K1 cells (Rees, S. et al, FEBS Lett. 355:242, 1994) in a modified Tris-HCl buffer (50 mM Tris-HCl, pH 7.4, 10 mM MgCl2, 0.5 mM EDTA) was used. Compounds of the invention were incubated with 1.7 nM [^3H]Lysergic acid diethylamide (LSD) for 60 min at 37° C. Non-specific binding was estimated in the presence of 100 μM Serotonin (5-HT). Receptor proteins were filtered and washed, the filters were counted to determine [^3H]LSD specifically bound. Compounds were screened at 1 μM or lower, using 1% DMSO as vehicle. Biochemical assay results are presented as the percent inhibition of specific binding in Table 4.

T2 sequence (P50406 whole entry): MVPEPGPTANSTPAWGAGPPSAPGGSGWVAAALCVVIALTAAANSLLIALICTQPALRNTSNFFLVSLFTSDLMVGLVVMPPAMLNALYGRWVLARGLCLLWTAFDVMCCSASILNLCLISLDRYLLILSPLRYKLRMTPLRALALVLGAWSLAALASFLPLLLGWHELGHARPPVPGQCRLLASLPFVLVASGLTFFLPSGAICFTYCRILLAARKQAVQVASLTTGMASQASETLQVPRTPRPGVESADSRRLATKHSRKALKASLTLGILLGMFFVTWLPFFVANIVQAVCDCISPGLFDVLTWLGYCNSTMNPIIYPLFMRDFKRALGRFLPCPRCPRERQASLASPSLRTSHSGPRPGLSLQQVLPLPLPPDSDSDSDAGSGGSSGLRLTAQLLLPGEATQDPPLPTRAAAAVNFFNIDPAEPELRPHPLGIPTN
T3 sequence (P47898 whole entry): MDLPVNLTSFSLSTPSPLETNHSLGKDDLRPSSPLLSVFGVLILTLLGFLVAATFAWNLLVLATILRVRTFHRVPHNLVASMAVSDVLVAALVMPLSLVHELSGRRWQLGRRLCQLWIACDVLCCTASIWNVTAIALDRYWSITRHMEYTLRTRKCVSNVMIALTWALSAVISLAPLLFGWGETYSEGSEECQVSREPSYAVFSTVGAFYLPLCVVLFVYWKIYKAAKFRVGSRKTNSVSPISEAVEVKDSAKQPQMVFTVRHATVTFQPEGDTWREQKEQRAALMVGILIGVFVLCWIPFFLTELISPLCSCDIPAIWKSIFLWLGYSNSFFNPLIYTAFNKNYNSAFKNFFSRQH
human recombinant histamine H1 receptor, sequence (P35367 whole entry): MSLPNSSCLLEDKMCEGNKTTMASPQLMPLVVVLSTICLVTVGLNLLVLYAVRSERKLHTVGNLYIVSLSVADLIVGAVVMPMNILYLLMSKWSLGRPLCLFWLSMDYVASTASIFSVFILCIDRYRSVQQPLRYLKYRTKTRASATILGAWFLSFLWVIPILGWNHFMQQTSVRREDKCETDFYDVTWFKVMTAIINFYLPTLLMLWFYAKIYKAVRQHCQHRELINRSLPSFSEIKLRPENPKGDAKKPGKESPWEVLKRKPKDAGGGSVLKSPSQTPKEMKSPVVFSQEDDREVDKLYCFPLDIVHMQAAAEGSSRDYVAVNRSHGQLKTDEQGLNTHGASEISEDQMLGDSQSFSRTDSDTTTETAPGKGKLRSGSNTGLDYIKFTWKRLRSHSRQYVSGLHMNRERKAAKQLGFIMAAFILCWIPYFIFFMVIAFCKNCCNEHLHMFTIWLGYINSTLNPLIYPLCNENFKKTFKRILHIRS

## C#CCC1(C)CN(C)Cc2c1n(C)c1ccc(C)cc21 (centres unmarked) [Compound 47, 2,4,5,8-tetramethyl-4-(prop-2-ynyl)-2,3,4,5-tetrahydro-1H-pyrido[4,3-b]indole]
[1]
  inhibition at 0.1 µM: 49%
[2]
  inhibition at 0.1 µM: 32%
[3]
  inhibition at 0.1 µM: 14%
[4]
  inhibition at 0.1 µM: 34%

## Cc1ccc2c(c1)c1c(n2C)C(C)(CCc2nc(-c3ccccc3)cs2)CN(C)C1 (centres unmarked) [Compound 48]
[1]
  inhibition at 0.1 µM: 89%
[2]
  inhibition at 0.1 µM: -12%
[3]
  inhibition at 0.1 µM: 22%
[4]
  inhibition at 0.1 µM: -3%
